Laboratory results from the supplement of paper PMC11451515.

Experiments:
Settings in all cases: 48 h
P12-Ichikawa [1] = assay: cell viability relative to DMSO control; higher = less cytotoxic
Method in brief: (§1)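 Cells were incubated for 48 h at 37°C before CellTiter-Glo One luminescence was read. The cells were NOMO1 or SEM (500 cells/well) or P12-Ichikawa (1000 cells/well) leukemia cells, adapted for at least four passages in each medium and seeded in 1536-well plates (5 μl). Dosing used library compounds in DMSO applied by pin over 11 threefold points, 47 μM to 0.79 nM. Viability is the per-plate percentage of DMSO wells, with cell-free wells as background.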

SEM cells [2] = assay: as above
Method in brief: as §1

NOMO1 [3] = assay: as above
Method in brief: as §1

P12-Ichikawa [4] = assay: AUC of viability dose-response curve (% viability x log10 dose units); higher = less sensitive
Method in brief: (§2)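 In 1536-well plates, leukemia cells adapted to each medium (500 or 1000 cells/well) were exposed for 48 h at 37°C to library compounds in DMSO across 11 threefold doses, 47 μM down to 0.79 nM. Viability was read by CellTiter-Glo One luminescence and normalised per plate to DMSO and cell-free wells. A four-parameter log-logistic fit over log10 doses was integrated by trapezoidal rule. This yielded the area under the curve, with over-full-viability curves scaled and quality-control failures dropped.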

SEM cells [5] = assay: as above
Method in brief: as §2

NOMO1 [6] = assay: as above
Method in brief: as §2

O=C1Nc2ccc(Cl)cc2[C@@](C#CC2CC2)(C(F)(F)F)O1
cell viability [%]
Settings | NOMO1 [3] | P12-Ichikawa [1] | SEM cells [2]
HPLM + 10% dialyzed FBS, 0.000781 µM | 74.7 | 81.8 | 65.1
HPLM + 10% dialyzed FBS, 0.00234 µM | 97 | 91.9 | 74
HPLM + 10% dialyzed FBS, 0.00702 µM | 76.4 | 90.5 | 86.3
HPLM + 10% dialyzed FBS, 0.0211 µM | 85.9 | 90.6 | 95
HPLM + 10% dialyzed FBS, 0.0632 µM | 97 | 90.2 | 86
HPLM + 10% dialyzed FBS, 0.19 µM | 84.8 | 91.1 | 88.4
HPLM + 10% dialyzed FBS, 0.569 µM | 80.2 | 91.1 | 88.8
HPLM + 10% dialyzed FBS, 1.71 µM | 81.4 | 92.1 | 80.2
HPLM + 10% dialyzed FBS, 5.12 µM | 59 | 96.2 | 88.9
HPLM + 10% dialyzed FBS, 15.4 µM | 57.2 | 95 | 96
HPLM + 10% dialyzed FBS, 46.1 µM | 79.8 | 80 | 93.4
RPMI 5 mM glucose + 10% FBS, 0.000781 µM | 73.7 | 78.3 | 71.8
RPMI 5 mM glucose + 10% FBS, 0.00234 µM | 78.2 | 94.4 | 69.8
RPMI 5 mM glucose + 10% FBS, 0.00702 µM | 77.1 | 78.6 | 82.2
RPMI 5 mM glucose + 10% FBS, 0.0211 µM | 80.7 | 76.2 | 84.9
RPMI 5 mM glucose + 10% FBS, 0.0632 µM | 88.7 | 85.5 | 89.6
RPMI 5 mM glucose + 10% FBS, 0.19 µM | 80.8 | 83.1 | 84.6
RPMI 5 mM glucose + 10% FBS, 0.569 µM | 79.3 | 91.6 | 84.4
RPMI 5 mM glucose + 10% FBS, 1.71 µM | 80.4 | 85 | 87.8
RPMI 5 mM glucose + 10% FBS, 5.12 µM | 81.3 | 84.5 | 85.9
RPMI 5 mM glucose + 10% FBS, 15.4 µM | 77.3 | 85.1 | 91.6
RPMI 5 mM glucose + 10% FBS, 46.1 µM | 12.5 | 55.4 | 63.7
RPMI 5 mM glucose + 10% dialyzed FBS, 0.000781 µM | 70.1 | 73.8 | 62.1
RPMI 5 mM glucose + 10% dialyzed FBS, 0.00234 µM | 90.1 | 77.7 | 70
RPMI 5 mM glucose + 10% dialyzed FBS, 0.00702 µM | 92.3 | 80.5 | 89.5
RPMI 5 mM glucose + 10% dialyzed FBS, 0.0211 µM | 101 | 88.6 | 81.2
RPMI 5 mM glucose + 10% dialyzed FBS, 0.0632 µM | 97.9 | 80.8 | 82.7
RPMI 5 mM glucose + 10% dialyzed FBS, 0.19 µM | 95.9 | 85.1 | 78.9
RPMI 5 mM glucose + 10% dialyzed FBS, 0.569 µM | 95.6 | 78.4 | 85.6
RPMI 5 mM glucose + 10% dialyzed FBS, 1.71 µM | 93.2 | 77.7 | 81.5
RPMI 5 mM glucose + 10% dialyzed FBS, 5.12 µM | 86.7 | 79.8 | 81.8
RPMI 5 mM glucose + 10% dialyzed FBS, 15.4 µM | 95.7 | 79 | 84.8
RPMI 5 mM glucose + 10% dialyzed FBS, 46.1 µM | 78.3 | 61.8 | 54.7

AUC of viability dose-response curve
Settings | NOMO1 [6] | P12-Ichikawa [4] | SEM cells [5]
HPLM + 10% dialyzed FBS | 381 | 430 | 413
RPMI 5 mM glucose + 10% FBS | 364 | 395 | 389
RPMI 5 mM glucose + 10% dialyzed FBS | 437 | 378 | 375

CCOC(=O)[C@H](CCc1ccccc1)N[C@@H](C)C(=O)N1CCC[C@H]1C(=O)O
cell viability [%]
Settings | NOMO1 [3] | P12-Ichikawa [1] | SEM cells [2]
HPLM + 10% dialyzed FBS, 0.000781 µM | 128 | 120 | 107
HPLM + 10% dialyzed FBS, 0.00234 µM | 105 | 108 | 110
HPLM + 10% dialyzed FBS, 0.00702 µM | 117 | 116 | 102
HPLM + 10% dialyzed FBS, 0.0211 µM | 134 | 111 | 97.3
HPLM + 10% dialyzed FBS, 0.0632 µM | 125 | 102 | 119
HPLM + 10% dialyzed FBS, 0.19 µM | 119 | 117 | 123
HPLM + 10% dialyzed FBS, 0.569 µM | 108 | 112 | 107
HPLM + 10% dialyzed FBS, 1.71 µM | 119 | 109 | 115
HPLM + 10% dialyzed FBS, 5.12 µM | 110 | 108 | 113
HPLM + 10% dialyzed FBS, 15.4 µM | 99.8 | 97.8 | 112
HPLM + 10% dialyzed FBS, 46.1 µM | 102 | 106 | 113
RPMI 5 mM glucose + 10% FBS, 0.000781 µM | 114 | 118 | 106
RPMI 5 mM glucose + 10% FBS, 0.00234 µM | 105 | 117 | 112
RPMI 5 mM glucose + 10% FBS, 0.00702 µM | 111 | 107 | 104
RPMI 5 mM glucose + 10% FBS, 0.0211 µM | 102 | 111 | 109
RPMI 5 mM glucose + 10% FBS, 0.0632 µM | 102 | 113 | 106
RPMI 5 mM glucose + 10% FBS, 0.19 µM | 105 | 113 | 112
RPMI 5 mM glucose + 10% FBS, 0.569 µM | 97.7 | 108 | 96.6
RPMI 5 mM glucose + 10% FBS, 1.71 µM | 103 | 111 | 94.5
RPMI 5 mM glucose + 10% FBS, 5.12 µM | 98.7 | 108 | 113
RPMI 5 mM glucose + 10% FBS, 15.4 µM | 93.3 | 98.1 | 120
RPMI 5 mM glucose + 10% FBS, 46.1 µM | 103 | 101 | 94.8
RPMI 5 mM glucose + 10% dialyzed FBS, 0.000781 µM | 97.9 | 114 | 119
RPMI 5 mM glucose + 10% dialyzed FBS, 0.00234 µM | 109 | 111 | 105
RPMI 5 mM glucose + 10% dialyzed FBS, 0.00702 µM | 116 | 106 | 108
RPMI 5 mM glucose + 10% dialyzed FBS, 0.0211 µM | 122 | 110 | 109
RPMI 5 mM glucose + 10% dialyzed FBS, 0.0632 µM | 116 | 113 | 111
RPMI 5 mM glucose + 10% dialyzed FBS, 0.19 µM | 123 | 116 | 103
RPMI 5 mM glucose + 10% dialyzed FBS, 0.569 µM | 112 | 105 | 94.4
RPMI 5 mM glucose + 10% dialyzed FBS, 1.71 µM | 110 | 121 | 101
RPMI 5 mM glucose + 10% dialyzed FBS, 5.12 µM | 103 | 104 | 103
RPMI 5 mM glucose + 10% dialyzed FBS, 15.4 µM | 96 | 108 | 99.2
RPMI 5 mM glucose + 10% dialyzed FBS, 46.1 µM | 99.5 | 102 | 98.5

AUC of viability dose-response curve
Settings | NOMO1 [6] | P12-Ichikawa [4] | SEM cells [5]
HPLM + 10% dialyzed FBS | 453 | 452 | 462
RPMI 5 mM glucose + 10% FBS | 437 | 447 | 470
RPMI 5 mM glucose + 10% dialyzed FBS | 461 | 465 | 434

Cc1cccc(-c2nn(C(=S)Nc3ccccc3)cc2-c2ccnc3ccccc23)n1
cell viability [%]
Settings | NOMO1 [3] | P12-Ichikawa [1] | SEM cells [2]
HPLM + 10% dialyzed FBS, 0.000781 µM | – | 115 | –
HPLM + 10% dialyzed FBS, 0.00234 µM | – | 122 | –
HPLM + 10% dialyzed FBS, 0.00702 µM | – | 120 | –
HPLM + 10% dialyzed FBS, 0.0211 µM | – | 117 | –
HPLM + 10% dialyzed FBS, 0.0632 µM | – | 117 | –
HPLM + 10% dialyzed FBS, 0.19 µM | – | 109 | –
HPLM + 10% dialyzed FBS, 0.569 µM | – | 113 | –
HPLM + 10% dialyzed FBS, 1.71 µM | – | 101 | –
HPLM + 10% dialyzed FBS, 5.12 µM | – | 109 | –
HPLM + 10% dialyzed FBS, 15.4 µM | – | 86.3 | –
HPLM + 10% dialyzed FBS, 46.1 µM | – | 78.3 | –
RPMI 5 mM glucose + 10% FBS, 0.000781 µM | 108 | 115 | 117
RPMI 5 mM glucose + 10% FBS, 0.00234 µM | 118 | 123 | 124
RPMI 5 mM glucose + 10% FBS, 0.00702 µM | 109 | 113 | 139
RPMI 5 mM glucose + 10% FBS, 0.0211 µM | 122 | 124 | 131
RPMI 5 mM glucose + 10% FBS, 0.0632 µM | 111 | 109 | 152
RPMI 5 mM glucose + 10% FBS, 0.19 µM | 113 | 117 | 130
RPMI 5 mM glucose + 10% FBS, 0.569 µM | 119 | 111 | 121
RPMI 5 mM glucose + 10% FBS, 1.71 µM | 108 | 100 | 126
RPMI 5 mM glucose + 10% FBS, 5.12 µM | 115 | 108 | 110
RPMI 5 mM glucose + 10% FBS, 15.4 µM | 81.6 | 91.4 | 118
RPMI 5 mM glucose + 10% FBS, 46.1 µM | 94.9 | 74.3 | 42.2
RPMI 5 mM glucose + 10% dialyzed FBS, 0.000781 µM | 115 | 121 | –
RPMI 5 mM glucose + 10% dialyzed FBS, 0.00234 µM | 122 | 109 | –
RPMI 5 mM glucose + 10% dialyzed FBS, 0.00702 µM | 112 | 122 | –
RPMI 5 mM glucose + 10% dialyzed FBS, 0.0211 µM | 119 | 114 | –
RPMI 5 mM glucose + 10% dialyzed FBS, 0.0632 µM | 115 | 118 | –
RPMI 5 mM glucose + 10% dialyzed FBS, 0.19 µM | 103 | 110 | –
RPMI 5 mM glucose + 10% dialyzed FBS, 0.569 µM | 111 | 119 | –
RPMI 5 mM glucose + 10% dialyzed FBS, 1.71 µM | 104 | 108 | –
RPMI 5 mM glucose + 10% dialyzed FBS, 5.12 µM | 117 | 98.9 | –
RPMI 5 mM glucose + 10% dialyzed FBS, 15.4 µM | 112 | 49 | –
RPMI 5 mM glucose + 10% dialyzed FBS, 46.1 µM | 102 | 73.1 | –

AUC of viability dose-response curve
Settings | NOMO1 [6] | P12-Ichikawa [4] | SEM cells [5]
HPLM + 10% dialyzed FBS | 431 | 440 | 465
RPMI 5 mM glucose + 10% FBS | 461 | 444 | 455
RPMI 5 mM glucose + 10% dialyzed FBS | 456 | 437 | 456
